“And” between values parts separate entries of the source, which are not always exact repeats. Equal entries are not always repeated. Where two headings read alike, the source gives them in different places.
Assays:
gp120 = conditions: by binding gp120; cited from earlier work
Ebola virus = conditions: cited from earlier work
glycoprotein B-2 (gpB-2) = glycoprotein B-2 (gpB-2) (Human herpesvirus 2, UniProt P08666); conditions: cited from earlier work
[1] = tested on: influenza A/California/07/2009 (H1N1); assay: microbe, parasite or virus in culture; type: cell-based, Influenza A Virus
Vero E6 cells = conditions: for Viability of Uninfected Vero E6 Cells (% Vehicle): 4-day treatment; for Viability of Uninfected Vero E6 Cells (A540): 4 days, individual replicates
[2] = tested on: SARS-CoV-2 (MEX-BC2/2020); assay: Live SARS-CoV-2 CPE-based antiviral assay in Vero E6 cells (neutral red uptake); type: cell-based

Sequence of glycoprotein B-2 (gpB-2) (P08666 23-904 limits assumed): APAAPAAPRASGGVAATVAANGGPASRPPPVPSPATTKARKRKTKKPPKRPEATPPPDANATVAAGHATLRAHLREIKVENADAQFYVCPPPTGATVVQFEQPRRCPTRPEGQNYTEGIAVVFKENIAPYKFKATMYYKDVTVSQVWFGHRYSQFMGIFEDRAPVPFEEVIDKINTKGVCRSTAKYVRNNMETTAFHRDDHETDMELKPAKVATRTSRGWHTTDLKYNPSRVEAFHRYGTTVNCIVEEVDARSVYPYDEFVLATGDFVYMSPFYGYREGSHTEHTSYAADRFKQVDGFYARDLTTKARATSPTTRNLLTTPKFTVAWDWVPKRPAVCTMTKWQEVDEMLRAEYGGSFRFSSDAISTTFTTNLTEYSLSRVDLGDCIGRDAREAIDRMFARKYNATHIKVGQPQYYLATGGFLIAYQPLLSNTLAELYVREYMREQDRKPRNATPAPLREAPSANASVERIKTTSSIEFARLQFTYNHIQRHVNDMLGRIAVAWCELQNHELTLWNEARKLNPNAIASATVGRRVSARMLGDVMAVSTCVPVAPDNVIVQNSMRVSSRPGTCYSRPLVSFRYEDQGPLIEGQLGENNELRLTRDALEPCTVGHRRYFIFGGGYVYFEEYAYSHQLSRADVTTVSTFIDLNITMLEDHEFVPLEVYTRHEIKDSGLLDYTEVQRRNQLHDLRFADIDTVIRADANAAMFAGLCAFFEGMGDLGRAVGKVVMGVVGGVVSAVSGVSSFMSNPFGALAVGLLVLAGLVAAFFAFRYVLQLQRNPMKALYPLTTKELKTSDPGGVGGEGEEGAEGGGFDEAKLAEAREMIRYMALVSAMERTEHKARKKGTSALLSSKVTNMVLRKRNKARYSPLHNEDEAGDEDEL

polyphenylene carboxymethylene [PPCM]
cell-to-cell transmission and primary infection by multiple clades of HIV-1 (gp120): prevents
inhibition of Ebola virus (Ebola virus): inhibited
binding to gpB-2, which prevents herpes attachment and fusion (glycoprotein B-2 (gpB-2)): binds

O=C1c2c(O)c(=O)ccn2N([C@@H]2c3ccccc3SCc3c2ccc(F)c3F)[C@@H]2COCCN12 [Baloxavir, baloxavir]
IAV Infectivity in A549 Cells (% Vehicle) ([1]; 0.01 nM, single data point): 95.3%
IVA Infectivity in A549 Cells (Absorbance 490 nm) ([1]; 0.01 nM, single data point): 1.064
IAV Infectivity in A549 Cells (% Vehicle) ([1]; 0.06 nM, single data point): 86.9%
IVA Infectivity in A549 Cells (Absorbance 490 nm) ([1]; 0.06 nM, single data point): 1.000
IAV Infectivity in A549 Cells (% Vehicle) ([1]; 0.32 nM, single data point): 64.4%
IVA Infectivity in A549 Cells (Absorbance 490 nm) ([1]; 0.32 nM, single data point): 0.828
IAV Infectivity in A549 Cells (% Vehicle) ([1]; 1.6 nM, single data point): 17.7%
IVA Infectivity in A549 Cells (Absorbance 490 nm) ([1]; 1.6 nM, single data point): 0.471
IAV Infectivity in A549 Cells (% Vehicle) ([1]; 8.0 nM, single data point): 6.1%
IVA Infectivity in A549 Cells (Absorbance 490 nm) ([1]; 8.0 nM, single data point): 0.383
IAV Infectivity in A549 Cells (% Vehicle) ([1]; 40 nM, single data point): 5.6%
IVA Infectivity in A549 Cells (Absorbance 490 nm) ([1]; 40 nM, single data point): 0.379
IAV Infectivity in A549 Cells (% Vehicle) ([1]; 0.2 μM, positive control): 6.0%
IVA Infectivity in A549 Cells (Absorbance 490 nm) ([1]; 0.2 μM, positive control, 48 hours, individual replicates, listed as BLX): 0.383 and 0.391 and 0.374
IAV Infectivity in A549 Cells (% Vehicle) ([1]; 200 nM, single data point): 6.0%
IVA Infectivity in A549 Cells (Absorbance 490 nm) ([1]; 200 nM, single data point): 0.382
IAV Infectivity in A549 Cells (% Vehicle) ([1]; 1,000 nM, single data point): 10.8%
IVA Infectivity in A549 Cells (Absorbance 490 nm) ([1]; 1,000 nM, single data point): 0.419
IC50 ([1]; Influenza A virus, H1N1, control antiviral, single data points, A549 cells, 48 hours, read-out: IC50, IAV Antiviral Assay): 0.49 nM
block of infection ([1]; at some concentrations tested): over 99%
Viability in A549 cells (% Vehicle) (A549 cells; 0.2 μM): 102.0 ± 2.4%

CCN(CC)CCCC(C)Nc1ccnc2cc(Cl)ccc12 (centres unmarked) [CQ, chloroquine diphosphate]
Viability of Uninfected Vero E6 Cells (% Vehicle) (Vero E6 cells; 5 μM): 75.9 ± 2.6%
Viability of Uninfected Vero E6 Cells (A540) (Vero E6 cells; 5 μM): 1.206 and 1.262
Absorbance (540 nm), SARS-CoV-2-induced CPE [2]: 0.985 and 1.011
Inhibition of SARS-CoV-2 (MEX-BC2/2020) Virus-Induced CPE (%) ([2]; 5 μM, positive control wells): 61.8 ± 2.5%

CC[C@H]1CN2CCc3cc(OC)c(OC)cc3[C@@H]2C[C@@H]1C[C@H]1NCCc2cc(OC)c(OC)cc21 [Emetine]
inhibition of cell viability (A549 cells; 10 μM): greater than 85%
Viability in A549 cells (% Vehicle) (A549 cells; 10 μM, cytotoxic control): 14.0 ± 4.6%
Viability in A549 Cells (A490) (A549 cells; 10 μM, cytotoxic control, 48 hours, individual replicates): 0.236 and 0.179

C[S+](C)[O-] [DMSO, Dimethyl sulfoxide]
Viability of Uninfected Vero E6 Cells (% Vehicle) (Vero E6 cells; 10%, cytotoxic agent control): −0.2 ± 0.0%
Viability of Uninfected Vero E6 Cells (A540) (Vero E6 cells; 10%, cytotoxic agent control): 0.074 and 0.073
block of cell viability (Vero E6 cells; tested at 10%): more than 99%

N#C[C@@]1(c2ccc3c(N)ncnn23)O[C@H](CO)[C@@H](O)[C@H]1O [GS-441524]
Viability of Uninfected Vero E6 Cells (A540) (Vero E6 cells; 1 μM): 1.404 and 1.753
loss of viability in uninfected cells (Vero E6 cells; 10 μM): no significant loss of viability
Viability of Uninfected Vero E6 Cells (A540) (Vero E6 cells; 10 μM): 1.616
Inhibition of SARS-CoV-2 (MEX-BC2/2020) Virus-Induced CPE (%) ([2]; 0.03 μM, single data point): −7.0%
Inhibition of SARS-CoV-2 (MEX-BC2/2020) Virus-Induced CPE (%) ([2]; 0.25 μM, single data point): 51.9%
Inhibition of SARS-CoV-2 (MEX-BC2/2020) Virus-Induced CPE (%) ([2]; 0.74 μM, single data point): 89.7%
prevention of the virus-induced CPE ([2]; 1 μM): completely prevented
Inhibition of SARS-CoV-2 (MEX-BC2/2020) Virus-Induced CPE (%) ([2]; 1 μM, positive control wells): 112.3 ± 24.4%
Inhibition of SARS-CoV-2 (MEX-BC2/2020) Virus-Induced CPE (%) ([2]; 2.2 μM, single data point): 89.9%
Inhibition of SARS-CoV-2 (MEX-BC2/2020) Virus-Induced CPE (%) ([2]; 6.7 μM, single data point): 96.3%
Inhibition of SARS-CoV-2 (MEX-BC2/2020) Virus-Induced CPE (%) ([2]; 10 μM, positive control wells): 117.2 ± 5.4%
prevention of the virus-induced CPE of the infected cells ([2]; control inhibitor, concentration not given): prevented completely
IC50 ([2]; control inhibitor, single data points, Vero E6, 96 hours): 170 nM

— patent US20240000828A1 (priority 2020, published 2024)
